Data on seven compounds can be found in patent US20250115620A1, “BRIDGED TRICYCLIC CARBAMOYLPYRIDONE COMPOUNDS AND USES THEREOF” (Gilead Sciences, Inc., priority 2022, published 2025).

Data set [1] is described as follows: in vitro. As to conditions: human, uninfected MT-4 cells.
The subject of data set [2] is pLAI reporter virus. The data set can be described thus: microbe, parasite or virus in culture. In kind it is cell-based, HIV. As to conditions: Human immunodeficiency virus 1, MT4, 72 h.
For data set [3], the system named is HIV-1 (IIIB). The data set can be described thus: microbe, parasite or virus in culture. The class given is cell-based. As to conditions: Human immunodeficiency virus 1, IIIB, MT4, 120 h, HIV-1 (IIIB) in MT-4 cells, 5 days incubation, Cell Titer Glo; read-out: MT4 EC50. (In general: ATP-based viability assays read luminescence as a measure of living cells.)

Where two headings read alike, the source gives them in different places. Where only a bound is given, the exact number is not on record here.

For `C[C@H]1CC[C@]2(CO2)[C@H]2CN1C(=O)c1c(O)c(=O)c(C(=O)NCc3c(F)cc(F)cc3F)cn12` [Example 165, (2R,3′S,7′R)-12′-hydroxy-3′-methyl-1′,11′-dioxo-N-(2,4,6-trifluorobenzyl)-1′,4′,5′,11′-tetrahydro-3′H,7′H-spiro[oxirane-2,6′-[2,7]methanopyrido[1,2-a][1,4]diazonine]-10′-carboxamide], the CC50 at 5 days in data set [1] came to 6590 nM. Further, the EC50 was found to be 5.4 nM in data set [2] (read-out: RLUC 50% HS EC50), 0.3 nM in data set [2] (read-out: RLUC CCM EC50) and 1.4 nM in data set [3].

Regarding `C[C@H]1CC[C@@]2(CCO2)[C@H]2CN1C(=O)c1c(O)c(=O)c(C(=O)NCc3c(F)cc(F)cc3F)cn12` [Example 55, (2R,3′S,7′R)-12′-hydroxy-3′-methyl-1′,11′-dioxo-N-(2,4,6-trifluorobenzyl)-1′,4′,5′,11′-tetrahydro-3′H,7′H-spiro[oxetane-2,6′-[2,7]methanopyrido[1,2-a][1,4]diazonine]-10′-carboxamide], the CC50 at 5 days in data set [1] is no less than 50000 nM. Also, the EC50 in data set [2] (read-out: RLUC 50% HS EC50) is 51 nM; in data set [2] (read-out: RLUC CCM EC50), 1.1 nM; in data set [3], 1.7 nM.

Compound `C[C@H]1CC[C@]2(CC(=O)N(Cc3ccc4scnc4c3)O2)[C@H]2CN1C(=O)c1c(O)c(=O)c(C(=O)NCc3c(F)cc(F)cc3F)cn12` [Example 113, (3′S,5S,7′R)-2-(benzo[d]thiazol-5-ylmethyl)-12′-hydroxy-3′-methyl-1′,3,11′-trioxo-N-(2,4,6-trifluorobenzyl)-1′,4′,5′,11′-tetrahydro-3′H,7′H-spiro[isoxazolidine-5,6′-[2,7]methanopyrido[1,2-a][1,4]diazonine]-10′-carboxamide] registered a CC50 at 5 days in data set [1] of no less than 50000 nM. For the same compound, the EC50 in data set [2] (read-out: RLUC 50% HS EC50) stood at 0.7 nM; in data set [2] (read-out: RLUC CCM EC50), 0.1 nM; in data set [3] it was 0.7 nM.

The compound `COCCOC1=NO[C@@]2(CC[C@H](C)N3C[C@H]2n2cc(C(=O)NCc4ccc(F)cc4F)c(=O)c(O)c2C3=O)C1` [Example 41, (3′S,5S,7′R)—N-(2,4-difluorobenzyl)-12′-hydroxy-3-(2-methoxyethoxy)-3′-methyl-1′,11′-dioxo-1′,4′,5′,11′-tetrahydro-3′H,4H,7′H-spiro[isoxazole-5,6′-[2,7]methanopyrido[1,2-a][1,4]diazonine]-10′-carboxamide] gave a CC50 at 5 days in data set [1] of 21500 nM. Moreover, the EC50 in data set [2] (read-out: RLUC 50% HS EC50) was 0.5 nM; in data set [2] (read-out: RLUC CCM EC50), 0.4 nM; in data set [3], 0.6 nM.

`COC1=NO[C@]2(CC[C@H](C)N3C[C@H]2n2cc(C(=O)NCc4c(F)cc(F)cc4F)c(=O)c(O)c2C3=O)C1` [Example 37, (3′S,5R,7′R)-12′-hydroxy-3-methoxy-3′-methyl-1′,11′-dioxo-N-(2,4,6-trifluorobenzyl)-1′,4′,5′,11′-tetrahydro-3′H,4H,7′H-spiro[isoxazole-5,6′-[2,7]methanopyrido[1,2-a][1,4]diazonine]-10′-carboxamide] had a CC50 at 5 days in data set [1] of 49900 nM. Moreover, the EC50 was 8.3 nM in data set [2] (read-out: RLUC 50% HS EC50), 0.7 nM in data set [2] (read-out: RLUC CCM EC50) and 1.6 nM in data set [3].

The compound `C[C@H]1CC[C@@]2(CC(CF)=NO2)[C@H]2CN1C(=O)c1c(O)c(=O)c(C(=O)NCc3ccc(F)cc3F)cn12` [Example 18, (3′S,5R,7′R)—N-(2,4-difluorobenzyl)-3-(fluoromethyl)-12′-hydroxy-3′-methyl-1′,11′-dioxo-1′,4′,5′,11′-tetrahydro-3′H,4H,7′H-spiro[isoxazole-5,6′-[2,7]methanopyrido[1,2-a][1,4]diazonine]-10′-carboxamide] returned a CC50 at 5 days in data set [1] of no less than 50000 nM. Also, the 50% effective concentration (EC50) in data set [2] (read-out: RLUC 50% HS EC50) turned out to be 2.4 nM; in data set [2] (read-out: RLUC CCM EC50) it was 1.6 nM; in data set [3], 4.5 nM.

As to `CO[C@H]1CS[C@]2(CC[C@H](C)N3C[C@H]2n2cc(C(=O)NCc4c(F)cc(F)cc4F)c(=O)c(O)c2C3=O)O1` (single isomer, unassigned) [170 (peak 1)], the CC50 at 5 days in data set [1] came to 42000 nM. Also, the EC50 in data set [2] (read-out: RLUC 50% HS EC50) stood at 5 nM; in data set [2] (read-out: RLUC CCM EC50) it was 0.3 nM; in data set [3], 1.3 nM.

A word on the CC50: it is the concentration giving 50% cytotoxicity. The term EC50 denotes the concentration at which the effect is half-maximal.
